Reference: US20250353828A1, “SUBSTITUTED BIARYL ENDOCHIN-LIKE QUINOLONES WITH ENHANCED ANTIPARASITIC ACTIVITY” (Oregon Health & Science University, priority 2022, published 2025)

Assays:
[1] = target: T1, P. falciparum cytochrome bc1 complex (Plasmodium falciparum, UniProt Q02768); details: data taken from Nilsen et al., 2013 (a) or Frueh et al., 2017 (b); cited from earlier work
T1 construct: endogenous in cells
T1 sequence (Q02768 1-376): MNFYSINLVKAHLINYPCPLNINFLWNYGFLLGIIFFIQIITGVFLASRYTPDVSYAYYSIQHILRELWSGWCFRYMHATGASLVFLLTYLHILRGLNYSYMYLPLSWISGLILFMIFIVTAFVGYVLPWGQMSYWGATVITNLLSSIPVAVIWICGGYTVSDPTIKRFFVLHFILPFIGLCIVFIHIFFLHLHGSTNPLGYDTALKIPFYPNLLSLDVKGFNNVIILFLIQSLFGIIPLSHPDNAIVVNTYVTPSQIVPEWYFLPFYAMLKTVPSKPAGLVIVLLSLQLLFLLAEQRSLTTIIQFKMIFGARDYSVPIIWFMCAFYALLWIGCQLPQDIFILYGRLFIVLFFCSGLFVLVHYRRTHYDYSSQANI

[2] = test system: P. yoelii (Kenya Strain) blood stage infection in mice; experiment: 4-day Peters test against murine malaria; assay type: in vivo; details: P. yoelii in mice, oral gavage in PEG400 on Days 1-4; prodrugs dosed on molar equivalency to parent drug
Description: On Day 5 a drop of blood was taken from the tail and a blood smear was prepared, fixed with methanol, and stained with Giemsa. The operator then examined the stained smear microscopically to determine percent parasitemia. Dosages of 0.0025, 0.005, 0.01, 0.03, 0.1, 0.3, 1.0 and 10 mg/kg/day were used for the experiment. […] In this model animals were inoculated exactly as for the 4-day test on Day 0 however drug was administered only on Day 1 while the operator made smears on Day 5 and again weekly thereafter for animals that remained aparasitemic. Animals that remained aparasitemic out to […] were scored as cures.
In Vivo Efficacy against Murine Malaria. The P. yoelii 4-day test monitors suppression of patent infection in female CF1 mice. The test began with the inoculation (iv) of parasitized erythrocytes (3.5×10^4/P. yoelli) (from a donor animal) on the first day of the experiment (D0). […] Initially the 3-biaryl-ELQs were tested at doses of 0.0025, 0.005, 0.01, 0.03, 0.1, 0.3, 1.0 and 10 mg/kg/day, including a vehicle-only (PEG400) control. After completion of drug treatment, a blood sample was collected (by pricking the tail vein) for determination of parasite burden beginning on the day after the final dose (D5). Percent parasitemia is assessed by direct microscopic analysis of Giemsa-stained blood smears. […] Animals with observable parasitemia following the experiment were euthanized; animals cleared of parasites from the bloodstream were observed daily with assessment of parasitemia performed weekly until day 30, at which point the animal(s) were scored as cured of infection. […] Non-linear regression analysis is used for objective determination of ED50's and ED90's from the accumulated data as well as the Non-Recrudescence Dose (NRD). The 4-day test protocol was reviewed and approved by the local IACUC board at the Portland VA Medical Center. Experiments were performed with 4 mice per group to ensure statistical accuracy.

[3] = target: T2, human liver cytochrome bc1 complex (Homo sapiens, UniProt P00156); details: data taken from Nilsen et al., 2013 (a) or Frueh et al., 2017 (b); cited from earlier work
T2 construct: human host cytochrome bc1 complex isolated from human liver tissue; from tissue; host or cells: human liver tissue

[4] = test system: P. falciparum cytochrome bc1 complex; experiment: biochemical; details: based on enzyme inhibitory activity
From the text: Isolation of Plasmodium falciparum Mitochondria and Ubiquinol-Cytochrome c Oxidoreductase Assay.

[5] = HepG2 cytotoxicity, TiterGlo ATP luminescence, galactose medium; assay type: cell-based, human; details: human
Description: […]. Of course, enhanced potency is desirable only if unaccompanied by enhanced toxicity. […] […]. The incubation period for these experiments was 48 hours.

[6] = test system: P. yoelii blood stage infection in mice; experiment: In vivo single-dose cure against murine malaria; details: lowest single dose that cures all 4 mice; P. yoelii, dose on Day 1; prodrugs dosed on molar equivalency to parent drug
Description: Animals that remained aparasitemic out to […] were scored as cures.
In Vivo Single-Dose Efficacy against Murine Malaria. The effectiveness of selected 3-biarylELQs and prodrugs was assessed vs. the blood stage infection for single dose cures. Mice are infected iv with 3.5×10^4 P. yoelii infected RBCs as described for the 4-day test above. Drug administration occurred on the day after inoculation (Day 1). Test agents were dissolved in PEG-400 and administered ig once. On the 5th day blood films were prepared and % parasitemia was assessed. Animals remaining parasite-free for 30 days after drug administration were considered cured. The initial dosing range was: 0.5, 1, 2.5, 5, 10 mg/kg, including a control. Experiments were performed with 4 mice per group to ensure statistical accuracy. The reported parameter for these studies is the lowest single dose that provides a cure to all 4 animals in the group.

[7] = test system: P. falciparum D1 clone (ELQ-300 resistant); experiment: microbe, parasite or virus in culture; assay type: cell-based; details: Plasmodium falciparum, 72 h, read-out: P. falciparum IC50 values, nM D1
[8] = test system: P. falciparum Dd2 strain (multidrug resistant); experiment: microbe, parasite or virus in culture; assay type: cell-based, Plasmodium falciparum; details: read-out: P. falciparum IC50 values, nM Dd2; Dd2 strain; 72 h incubation; averages of quadruplicate with (95% confidence intervals)
Description: (§1) Rationale for Synthesis of a 3-Biaryl Version of ELQ-300. […] All of this information is stored in a database with information relating to chemical structure, physical chemical properties, cross resistance patterns, mammalian cell cytotoxicity, enzyme inhibitor profiles, and synthesis details. […] We employed the SyBr Green assay and the plates were incubated for 72 hours before harvesting^18, 19. […] Stock solutions were freshly prepared in DMSO.
(§2) Plasmodium falciparum Culture. Laboratory strains of P. falciparum were cultured in human erythrocytes by standard methods. The parasites were grown in culture medium with fresh human erythrocytes maintained at 2% hematocrit at 37° C. in low-oxygen conditions (5% O2, 5% CO2, […] balance N2). […] Cultures were maintained at less than 10% parasitemia by transfer of infected cells to fresh erythrocytes and culture medium every 3 or 4 days.
(§3) In vitro drug susceptibility assays. SYBR green I assay. In vitro antiplasmodial activity was assessed using a published SYBR Green I fluorescence-based method. The drugs were added to 96-well plates using 2-fold serial dilutions in complete medium. […] Asynchronous P. falciparum parasites were diluted with uninfected erythrocytes and added to the wells to give a final culture volume of 100 μl at 2% hematocrit and 0.2% parasitemia. […] The parasites were then lysed by adding 100 μl of SYBR green I lysis buffer containing 0.2 μl/ml SYBR green I dye (10,000×) in 20 mM Tris (pH 7.5), 5 mM EDTA, 0.008% (wt/vol) saponin, and 0.08% (vol/vol) Triton X-100. The plates were incubated at room temperature for an hour in the dark. […] If the IC50 value fell outside of the initial tested range then the range was adjusted up or down and the assay was repeated.

[9] = test system: P. falciparum Tm90-C2B (atovaquone-resistant clinical isolate); experiment: In vitro antiplasmodial activity, SYBR Green I assay, Tm90-C2B; assay type: cell-based; details: Plasmodium falciparum; Tm90-C2B strain; 72 h incubation; averages of quadruplicate with (95% confidence intervals); read-out: P. falciparum IC50 values, nM Tm90-C2B
Description: as §1, §2, §3

[10] = test system: P. falciparum D6 strain (drug sensitive); experiment: In vitro antiplasmodial activity, SYBR Green I assay, D6 strain; assay type: cell-based, Plasmodium falciparum; details: Plasmodium falciparum; D6 strain; 72 h incubation; averages of quadruplicate with (95% confidence intervals); read-out: P. falciparum IC50 values, nM D6
Description: as §1, §2, §3

SMILES: COc1cc2[nH]c(C)c(-c3ccc(Oc4ccc(OC(F)(F)F)cc4)cc3)c(=O)c2cc1Cl [ELQ-300, reference compound]
- IC50 [1]: 0.56 nM
- 4-day Peters Test Results ED90 [2]: 0.06 mg/kg/day
- 4-day Peters Test Results NRD (non-recrudescence dose) [2]: 1.0 mg/kg/day
- IC50 [3]: > 10000 nM
- Selectivity Index Human/Pf cyt. bc1 [4]: ≥18,000
- EC50 at 48 h [5]: > 10000 nM
- Single dose cure [6]: >25 mg/kg/day
- IC50 [7]: 168 nM
- IC50 [8]: 4.2 nM
- IC50 [9]: 2.5 nM
- IC50 [10]: 3.3 nM
